ChEMBL document CHEMBL1201862, “PubChem BioAssay data set” (2004)
Activity calls are given as the source filed them.

Experiments:
[1] = target: T1, Carboxy-terminal domain RNA polymerase II polypeptide A small phosphatase 1 (Homo sapiens, UniProt Q9GZU7); test: inhibitors of CTDSP1, concentration-response testing, biochemical assay, absorbance-based, actives from ultra-high-throughput screening (AID 540297); assay type: functional
T1 sequence (Q9GZU7 whole entry): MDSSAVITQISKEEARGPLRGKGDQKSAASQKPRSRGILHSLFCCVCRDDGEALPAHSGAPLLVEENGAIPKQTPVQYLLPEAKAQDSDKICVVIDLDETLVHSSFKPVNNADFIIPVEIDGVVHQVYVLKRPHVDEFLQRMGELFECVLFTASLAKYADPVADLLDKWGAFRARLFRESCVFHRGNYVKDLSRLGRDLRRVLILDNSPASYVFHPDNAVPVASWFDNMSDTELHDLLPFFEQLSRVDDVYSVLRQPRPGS

Leucine aminopeptidase = target: T2, Leucine aminopeptidase (Plasmodium falciparum 3D7, UniProt Q8IL11); test: P. falciparum M17LAP inhibitors, primary screen, biochemical, fluorogenic H-Leu-NHMec substrate, 1536-well (AID 1619); assay type: functional
T2 sequence (Q8IL11 whole entry): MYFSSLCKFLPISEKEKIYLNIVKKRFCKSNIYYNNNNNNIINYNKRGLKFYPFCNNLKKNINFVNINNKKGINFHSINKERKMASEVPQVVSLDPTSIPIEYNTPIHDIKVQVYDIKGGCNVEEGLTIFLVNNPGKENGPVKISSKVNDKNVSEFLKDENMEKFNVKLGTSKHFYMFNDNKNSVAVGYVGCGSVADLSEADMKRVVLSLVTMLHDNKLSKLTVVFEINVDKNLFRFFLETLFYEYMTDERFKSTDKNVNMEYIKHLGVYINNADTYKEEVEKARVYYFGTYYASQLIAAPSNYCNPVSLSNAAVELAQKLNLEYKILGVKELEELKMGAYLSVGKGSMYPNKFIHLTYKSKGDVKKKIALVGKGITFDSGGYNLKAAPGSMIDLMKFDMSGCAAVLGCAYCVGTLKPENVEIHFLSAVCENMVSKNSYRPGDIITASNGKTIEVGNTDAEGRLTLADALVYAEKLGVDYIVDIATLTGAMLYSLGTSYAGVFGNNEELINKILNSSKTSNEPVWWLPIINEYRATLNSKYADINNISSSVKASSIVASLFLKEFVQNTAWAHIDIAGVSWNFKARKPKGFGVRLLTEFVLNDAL

[2] = target: T3, Zinc finger protein mex-5 (Caenorhabditis elegans, UniProt Q9XUB2); test: MEX-5/TCR-2 RNA interaction inhibitors, dose response, biochemical, C. elegans, fluorescence polarization (AID 1960)
T3 sequence (Q9XUB2 whole entry): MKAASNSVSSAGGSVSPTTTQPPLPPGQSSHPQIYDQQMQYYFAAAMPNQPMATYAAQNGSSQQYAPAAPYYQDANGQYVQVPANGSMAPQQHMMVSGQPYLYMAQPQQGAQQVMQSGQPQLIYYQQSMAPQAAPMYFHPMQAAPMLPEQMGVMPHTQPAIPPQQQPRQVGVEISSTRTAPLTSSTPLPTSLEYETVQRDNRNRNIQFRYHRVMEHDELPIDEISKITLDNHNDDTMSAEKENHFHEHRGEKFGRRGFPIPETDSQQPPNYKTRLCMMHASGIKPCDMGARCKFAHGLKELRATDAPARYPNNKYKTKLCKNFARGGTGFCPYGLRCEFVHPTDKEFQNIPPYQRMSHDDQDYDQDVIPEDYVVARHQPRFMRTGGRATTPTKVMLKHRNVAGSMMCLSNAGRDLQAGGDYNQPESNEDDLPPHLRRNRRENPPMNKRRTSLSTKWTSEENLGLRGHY

[3] = target: T4, Endoribonuclease toxin MazF (Escherichia coli K-12, UniProt P0AE70); test: MazF toxin RNase activators, dose response, biochemical, fluorescence, single-stranded RNA substrate, uHTS hits (AID 588481); assay type: functional
T4 sequence (P0AE70 whole entry): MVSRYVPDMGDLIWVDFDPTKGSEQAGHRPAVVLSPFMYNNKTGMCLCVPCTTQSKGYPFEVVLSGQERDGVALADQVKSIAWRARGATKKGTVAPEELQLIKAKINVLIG

[4] = target: T5, RNA-binding protein pos-1 (Caenorhabditis elegans, UniProt G5EF15); test: inhibitors of POS-1/mex-3 RNA binding, dose response, biochemical, fluorescence polarization (AID 1964);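 also: purified POS-1 fused to maltose binding protein made in E. coli; potency of compounds blocking POS-1 binding to fluorescent RNA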
T5 sequence (G5EF15 whole entry): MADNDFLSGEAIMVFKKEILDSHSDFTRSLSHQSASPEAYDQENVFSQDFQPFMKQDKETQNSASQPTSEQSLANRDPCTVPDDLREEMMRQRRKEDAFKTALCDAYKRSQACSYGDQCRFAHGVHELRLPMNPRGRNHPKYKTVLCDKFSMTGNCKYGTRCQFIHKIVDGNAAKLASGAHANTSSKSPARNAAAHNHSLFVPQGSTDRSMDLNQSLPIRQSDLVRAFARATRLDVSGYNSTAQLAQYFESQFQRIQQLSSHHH

[5] = target: T4, Endoribonuclease toxin MazF; test: fluorescent RNA oligo signal without MazF, dose response, counter-screen for MazEF activator project, biochemical, fluorescence, single-stranded RNase substrate (AID 588502); assay type: functional
[6] = intracellular Trypanosoma cruzi inhibitors in host cells – cell-based, plate reader, cherry-pick samples, set 3, dose response (AID 651818); assay type: functional;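 also: compounds incubated with infected cells for about four days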
[7] = Luminescence Cell-Based Dose Retest to Confirm Inhibitors of Cancer Stem Cells. [Related pubchem assays (depositor defined):AID2717, AID2721]; assay type: functional; conditions: Homo sapiens
Estrogen receptor = target: T6, Estrogen receptor (Homo sapiens, UniProt P03372);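 also: potency for inhibiting coactivator peptide recruitment to the receptor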
T6 sequence (P03372 whole entry): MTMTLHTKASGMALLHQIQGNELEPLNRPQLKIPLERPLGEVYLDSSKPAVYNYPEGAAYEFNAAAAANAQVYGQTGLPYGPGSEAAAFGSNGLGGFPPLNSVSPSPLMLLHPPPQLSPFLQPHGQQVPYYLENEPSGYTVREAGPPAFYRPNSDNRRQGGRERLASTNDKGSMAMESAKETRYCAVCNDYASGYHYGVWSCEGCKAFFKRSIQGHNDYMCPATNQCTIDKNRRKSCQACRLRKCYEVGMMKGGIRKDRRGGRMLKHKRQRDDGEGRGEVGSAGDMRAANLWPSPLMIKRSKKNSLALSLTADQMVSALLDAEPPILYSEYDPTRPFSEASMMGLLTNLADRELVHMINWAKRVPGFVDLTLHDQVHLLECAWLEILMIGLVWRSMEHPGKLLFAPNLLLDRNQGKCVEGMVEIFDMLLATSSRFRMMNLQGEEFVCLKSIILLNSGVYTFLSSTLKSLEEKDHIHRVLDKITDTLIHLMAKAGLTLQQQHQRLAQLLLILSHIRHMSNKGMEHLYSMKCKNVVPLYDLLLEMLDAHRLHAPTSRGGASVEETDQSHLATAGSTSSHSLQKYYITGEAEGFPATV

[8] = target: ATP-dependent molecular chaperone HSP82 (Candida albicans (strain WO-1) (Yeast), UniProt C4YTQ8); test: loss of DOC-induced GRE-beta-galactosidase reporter signal, dose response, Hsp90 inhibitor project, S. cerevisiae, luminescence (AID 2400); assay type: functional, cell-based;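 also: beta-galactosidase luminescence from glucocorticoid response element reporter as proxy for Hsp90 function; inhibitor potency where signal loss means Hsp90 inhibition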
Sequence of ATP-dependent molecular chaperone HSP82 (C4YTQ8 whole entry): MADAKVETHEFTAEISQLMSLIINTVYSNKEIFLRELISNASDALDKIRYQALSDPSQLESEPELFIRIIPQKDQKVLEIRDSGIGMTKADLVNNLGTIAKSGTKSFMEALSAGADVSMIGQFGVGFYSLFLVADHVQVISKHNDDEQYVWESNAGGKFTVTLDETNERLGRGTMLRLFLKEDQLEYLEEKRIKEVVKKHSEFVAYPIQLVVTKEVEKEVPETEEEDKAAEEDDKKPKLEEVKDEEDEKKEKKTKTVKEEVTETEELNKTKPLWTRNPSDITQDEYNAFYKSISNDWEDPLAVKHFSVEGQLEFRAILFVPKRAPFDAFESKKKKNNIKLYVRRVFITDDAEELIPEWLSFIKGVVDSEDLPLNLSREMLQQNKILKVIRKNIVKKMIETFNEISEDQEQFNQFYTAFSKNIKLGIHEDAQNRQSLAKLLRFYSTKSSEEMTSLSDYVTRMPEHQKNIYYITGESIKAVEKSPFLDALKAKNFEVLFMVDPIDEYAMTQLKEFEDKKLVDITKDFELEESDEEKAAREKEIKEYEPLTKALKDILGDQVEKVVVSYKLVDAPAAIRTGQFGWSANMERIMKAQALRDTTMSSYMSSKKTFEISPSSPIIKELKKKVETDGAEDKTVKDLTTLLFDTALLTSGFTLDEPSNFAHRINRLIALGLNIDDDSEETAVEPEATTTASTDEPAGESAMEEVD

[9] = NIH-3T3 fibroblast cytotoxicity, dose response, cytotoxicity control, cell-based, fluorescence, Alamar Blue, secondary assay (AID 2327); assay type: functional;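 also: NIH-3T3 mouse fibroblasts cultured with fluconazole at 8 µg/mL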
[10] = target: T7, Serine/threonine-protein phosphatase (Candida dubliniensis (strain CD36 / CBS 7987 / NCPF 3949 / NRRLY-17841) (Yeast), UniProt B9W6M3); test: calcineurin pathway inhibitors in yeast reporter, dose response, S. cerevisiae, CDRE-lacZ, luminescence, secondary (AID 2388); assay type: functional, cell-based;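 also: yeast reporter cells carrying a calcineurin-responsive lacZ construct stimulated with calcium chloride; luminescent beta-galactosidase reporter signal in whole cells rather than isolated phosphatase activity; potency for inhibition where a drop in reporter signal means calcineurin blockade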
T7 sequence (B9W6M3 whole entry): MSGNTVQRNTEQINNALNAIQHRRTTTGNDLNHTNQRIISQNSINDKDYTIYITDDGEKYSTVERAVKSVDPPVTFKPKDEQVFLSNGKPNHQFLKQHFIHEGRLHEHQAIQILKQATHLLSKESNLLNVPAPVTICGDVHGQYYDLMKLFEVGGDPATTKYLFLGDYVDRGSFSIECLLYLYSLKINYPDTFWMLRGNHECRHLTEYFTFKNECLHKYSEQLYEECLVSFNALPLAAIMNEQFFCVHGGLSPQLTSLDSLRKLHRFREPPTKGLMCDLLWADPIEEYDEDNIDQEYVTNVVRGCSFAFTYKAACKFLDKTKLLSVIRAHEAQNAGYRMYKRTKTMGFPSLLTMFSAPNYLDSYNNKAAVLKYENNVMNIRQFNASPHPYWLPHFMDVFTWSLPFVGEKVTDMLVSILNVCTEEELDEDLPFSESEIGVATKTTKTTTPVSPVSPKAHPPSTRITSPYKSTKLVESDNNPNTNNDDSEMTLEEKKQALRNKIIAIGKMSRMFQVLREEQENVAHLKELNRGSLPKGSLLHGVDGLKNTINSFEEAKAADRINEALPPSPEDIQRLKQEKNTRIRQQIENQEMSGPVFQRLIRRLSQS

[11] = target: T8, High affinity choline transporter 1 (Homo sapiens, UniProt Q9GZV3); test: CHT inhibitors, dose response, cell-based, 5-point CRC, membrane potential dye (AID 504840); assay type: functional
T8 sequence (Q9GZV3 whole entry): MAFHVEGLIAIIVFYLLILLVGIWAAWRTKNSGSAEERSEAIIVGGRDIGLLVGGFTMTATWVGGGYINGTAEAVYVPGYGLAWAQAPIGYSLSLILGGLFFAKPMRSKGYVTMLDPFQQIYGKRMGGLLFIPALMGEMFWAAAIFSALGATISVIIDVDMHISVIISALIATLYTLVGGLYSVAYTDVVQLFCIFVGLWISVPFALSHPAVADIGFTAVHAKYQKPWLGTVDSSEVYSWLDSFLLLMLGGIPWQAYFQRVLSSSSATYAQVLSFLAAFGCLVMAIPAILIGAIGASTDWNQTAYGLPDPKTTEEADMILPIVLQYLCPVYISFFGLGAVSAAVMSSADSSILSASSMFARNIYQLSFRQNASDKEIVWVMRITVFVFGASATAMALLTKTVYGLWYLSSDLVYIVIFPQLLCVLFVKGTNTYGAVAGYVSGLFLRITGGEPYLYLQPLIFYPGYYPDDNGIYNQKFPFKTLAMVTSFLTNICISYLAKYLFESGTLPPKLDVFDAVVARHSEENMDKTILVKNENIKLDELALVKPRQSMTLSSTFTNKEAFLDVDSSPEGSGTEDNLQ

Genome polyprotein = Genome polyprotein (dengue virus type 2, UniProt P29990); test: Dengue-2 NS5 methyltransferase inhibitors, primary screen, biochemical, confirmation dose response (AID 588689); assay type: functional
Sequence of Genome polyprotein (P29990 2492-3391 limits assumed): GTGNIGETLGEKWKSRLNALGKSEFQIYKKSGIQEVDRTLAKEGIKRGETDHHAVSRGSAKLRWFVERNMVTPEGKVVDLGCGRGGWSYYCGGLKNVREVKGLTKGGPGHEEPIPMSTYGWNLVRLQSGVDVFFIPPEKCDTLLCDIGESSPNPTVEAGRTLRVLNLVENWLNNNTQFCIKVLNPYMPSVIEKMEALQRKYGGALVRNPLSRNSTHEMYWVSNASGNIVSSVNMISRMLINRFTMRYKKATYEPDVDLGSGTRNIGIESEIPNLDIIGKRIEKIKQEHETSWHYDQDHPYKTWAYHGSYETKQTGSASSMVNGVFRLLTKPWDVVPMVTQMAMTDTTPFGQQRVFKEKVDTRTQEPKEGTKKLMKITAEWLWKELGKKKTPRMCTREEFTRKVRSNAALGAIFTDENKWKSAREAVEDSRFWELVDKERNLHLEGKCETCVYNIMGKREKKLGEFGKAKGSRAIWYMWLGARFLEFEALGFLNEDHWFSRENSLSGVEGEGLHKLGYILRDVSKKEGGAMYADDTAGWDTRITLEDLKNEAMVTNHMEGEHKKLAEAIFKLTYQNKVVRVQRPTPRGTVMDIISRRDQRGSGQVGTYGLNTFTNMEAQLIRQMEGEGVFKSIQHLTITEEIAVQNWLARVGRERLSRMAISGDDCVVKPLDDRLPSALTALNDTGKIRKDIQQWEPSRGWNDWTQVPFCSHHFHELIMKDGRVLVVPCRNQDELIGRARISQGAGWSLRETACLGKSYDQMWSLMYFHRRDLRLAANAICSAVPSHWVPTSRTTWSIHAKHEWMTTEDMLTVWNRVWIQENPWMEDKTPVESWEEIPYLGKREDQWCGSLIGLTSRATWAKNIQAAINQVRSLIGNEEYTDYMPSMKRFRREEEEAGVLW

[12] = C. albicans growth with fluconazole, confirmation, fluorescence, retest (AID 2467); assay type: functional, cell-based
[13] = microbe, parasite or virus in culture; assay type: functional; conditions: Mycobacterium tuberculosis
[14] = HepG2 cell cytotoxicity, dose response, cytotoxicity control for non-replicating M. tuberculosis project (AID 489018); assay type: functional; conditions: Mycobacterium tuberculosis
cells = assay type: functional
[15] = Vero E6 cell cytotoxicity, dose response, cytotoxicity control for non-replicating M. tuberculosis project, secondary assay (AID 492998); assay type: functional, VeroE6; conditions: Vero C1008
[16] = THP-1 cell cytotoxicity, dose response, cytotoxicity control for non-replicating M. tuberculosis project (AID 489025); assay type: functional

## CCOC(=O)c1c(NC(=O)C2C3C=CC(C3)C2(C)C(=O)O)sc2c1CCCC2 (stereo not given)
[1]
  IC50: 16.1 µM (active)
Leucine aminopeptidase
  IC50: 8.1 µM (active)

## CC(=O)c1sc2nc(-c3cccs3)cc(C(F)(F)F)c2c1N
[2]
  EC50: > 300 µM (not active)
[3]
  EC50: > 99 µM (inactive)
[4]
  EC50: 45.9 µM (active)
[5]
  EC50: 22.3 µM (inactive)

## CCOC(=O)[C@H]1[C@H]2COc3ccccc3[C@@H]2N2C(=O)CN(Cc3ccc(C)cc3)C(=O)[C@@]12C
[3]
  EC50: > 99 µM (inactive)
[5]
  EC50: > 99 µM (inactive)

## C[C@@H]1CCCCO[C@@H](CN(C)Cc2ccc(C(=O)Nc3ccccc3N)cc2)[C@@H](C)CN([C@H](C)CO)C(=O)c2cc(NS(C)(=O)=O)ccc2O1
[6]
  AC50: 4.5 µM (active)

## C[C@H](CO)N1C[C@H](C)[C@@H](CN(C)Cc2ccc(C(F)(F)F)cc2)Oc2ccc(NS(=O)(=O)c3ccc(F)cc3)cc2C1=O
[6]
  AC50: 3.48 µM (active)

## O=C(NNC(=O)c1cc2cc3ccccc3nc2s1)c1ccc(F)cc1
[1]
  IC50: 4.28 µM (active)

## O=[N+]([O-])c1cccc(-c2csc(N/N=C/c3cccc(O)c3)n2)c1
[1]
  IC50: 10.8 µM (active)
[7]
  AC50: 2.8 µM (active)

## COc1ccc(OCCC(=O)OCC(=O)NCc2ccco2)cc1
[1]
  IC50: 9.12 µM (active)
Estrogen receptor
  IC50: 33.3 µM (not active)

## O=C(NCc1ccccc1)c1sc(=S)n2c1[nH]c(=O)c1ccccc12
[8]
  EC50: 6.61 µM (active)
[9]
  EC50: > 150 µM (inactive)
[10]
  EC50: > 180 µM (inactive)
[11]
  IC50: 22 µM (active)
Genome polyprotein
  IC50: 77 µM (active)
[12]
  EC50: 0.706 µM (active)

## O=C(O)Cc1ccc(NC(=O)c2ccc3c(c2)C(=O)N(Cc2ccco2)C3=O)cc1
[1]
  IC50: 3.79 µM (active)

## CC1(O)CC(c2ccc(Cl)cc2)=NN1C(=O)c1ccc([N+](=O)[O-])cc1 (stereo not given)
[8]
  EC50: 12.5 µM (active)
[9]
  EC50: > 150 µM (inconclusive)
[10]
  EC50: > 180 µM (inactive)
[13]
  CC50: 24.7 µM (active)
[7]
  AC50: 3.86 µM (active)
[14]
  CC50: > 20 µM (active)
cells
  IC50: 14.2 µM (active)
[12]
  EC50: 0.404 µM (active)
[15]
  CC50: 19.5 µM (active)
[16]
  CC50: 15.5 µM (active)

## CCCCN1CC(=O)N2[C@@H]3c4cc(Br)ccc4OC[C@@H]3[C@H](C(=O)OCC)[C@]2(C)C1=O
[3]
  EC50: > 99 µM (inactive)
[5]
  EC50: 39.6 µM (inactive)

## O=C(COc1cccc2ccccc12)Nc1cc(Cl)ccc1C(=O)O
Genome polyprotein
  IC50: 40.5 µM (active)
